Reference: BindingDB's records for PubMed 1650832 (Pfizer, 1991)

Molecular target: T1, Cysteinyl leukotriene receptor 2 (Cavia porcellus, UniProt Q2NNR4)
T1 sequence (Q2NNR4 whole entry): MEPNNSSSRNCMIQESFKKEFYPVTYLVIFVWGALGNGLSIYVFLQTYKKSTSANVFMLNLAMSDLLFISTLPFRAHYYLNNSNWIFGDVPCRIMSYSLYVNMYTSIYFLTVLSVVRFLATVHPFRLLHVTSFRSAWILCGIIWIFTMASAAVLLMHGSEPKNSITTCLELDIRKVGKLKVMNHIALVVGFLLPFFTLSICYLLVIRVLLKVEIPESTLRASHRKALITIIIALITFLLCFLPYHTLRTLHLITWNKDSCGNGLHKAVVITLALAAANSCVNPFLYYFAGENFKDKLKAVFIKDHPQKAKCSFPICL

| Ki [nM] | Structure (SMILES) |
| --- | --- |
| 6.89 | COc1cc(C(=O)NS(=O)(=O)c2ccccc2)ccc1Cn1ncc2ccc(NC(=O)OC3CCCC3)cc21 |
| 0.49 | CCCCC/C=C\C\C=C/C=C/C=C/[C@@H](SC[C@H](N)C(=O)NCC(=O)O)[C@@H](O)CCCC(=O)O [5S-hydroxy-6R-(S-cysteinylglycinyl)-7E,9E,11E,14Z-eicosatetraenoic acid] |
| 35.5 | CCCCC/C=C\C\C=C/C=C/C=C/[C@@H](SC[C@H](N)C(=O)O)[C@@H](O)CCCC(=O)O [(5S-(5R*,6S*(S*),7E,9E,11Z,14Z))-6-((2-Amino-2-carboxyethyl)thio)-5-hydroxy-7,9,11,14-eicosatetraenoic acid] |
| 178 | CCCCCC=CCC=CC=CC=CC(SCC(NC(=O)CCC(N)C(=O)O)C(=O)NCC(=O)O)C(O)CCCC(=O)O (centres undefined) [CAS_5283121] |
